According to PubChem BioAssay AID1963972 (Molecular Pharmacology Branch, DTP, NCI, 2024):

Test system: 945468-187-T-J2-PDC spheroids viability
Test: Anticancer human tumor 945468-187-T-J2-PDC patient-derived rectal carcinoma cell line growth inhibition [PI3K]
Settings: spheroids with HUVEC and MSC; for IC50: curve of first compound; for viability, T/C: stronger effect = lower value
Method in brief: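 Viability of mixed-cell spheroids was determined after exposure to pairwise combinations, one partner being inavolisib, alpelisib, duvelisib or copanlisib. Highest tested concentration matched clinical Cmax where known and 10 microM where not, descending in half-log steps.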

[1] = second compound 0.0316 µM, first compound 0.0316 µM
[2] = second compound 0.0316 µM, first compound 0.1 µM
[3] = second compound 0.0316 µM, first compound 0.316 µM
[4] = second compound 0.0316 µM, first compound 1 µM
[5] = second compound 0.1 µM, first compound 0.0316 µM
[6] = second compound 0.1 µM, first compound 0.1 µM
[7] = second compound 0.1 µM, first compound 0.316 µM
[8] = second compound 0.1 µM, first compound 1 µM
[9] = second compound 0.316 µM, first compound 0.0316 µM
[10] = second compound 0.316 µM, first compound 0.1 µM
[11] = second compound 0.316 µM, first compound 0.316 µM
[12] = second compound 0.316 µM, first compound 1 µM
[13] = second compound 1 µM, first compound 0.0316 µM
[14] = second compound 1 µM, first compound 0.1 µM
[15] = second compound 1 µM, first compound 0.316 µM
[16] = second compound 1 µM, first compound 1 µM
[17] = second compound 3.16 µM, first compound 0.0316 µM
[18] = second compound 3.16 µM, first compound 0.1 µM
[19] = second compound 3.16 µM, first compound 0.316 µM
[20] = second compound 3.16 µM, first compound 1 µM
[21] = second compound 10 µM, first compound 0.0316 µM
[22] = second compound 10 µM, first compound 0.1 µM
[23] = second compound 10 µM, first compound 0.316 µM
[24] = second compound 10 µM, first compound 1 µM
[25] = second compound 0.0316 µM, first compound 3.16 µM
[26] = second compound 0.0316 µM, first compound 10 µM
[27] = second compound 0.1 µM, first compound 3.16 µM
[28] = second compound 0.1 µM, first compound 10 µM
[29] = second compound 0.316 µM, first compound 3.16 µM
[30] = second compound 0.316 µM, first compound 10 µM
[31] = second compound 1 µM, first compound 3.16 µM
[32] = second compound 1 µM, first compound 10 µM
[33] = second compound 3.16 µM, first compound 3.16 µM
[34] = second compound 3.16 µM, first compound 10 µM
[35] = second compound 10 µM, first compound 3.16 µM
[36] = second compound 10 µM, first compound 10 µM
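Note: spheroids exposed to compounds for seven days before reading.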

## CCN1CCN(Cc2ccc(Nc3ncc(F)c(-c4cc(F)c5nc(C)n(C(C)C)c5c4)n3)nc2)CC1 + Cc1nc(NC(=O)N2CCCC2C(N)=O)sc1-c1ccnc(C(C)(C)C(F)(F)F)c1
Second compound 0.0316 µM
  IC50: > 1 µM
Second compound 0.1 µM
  IC50: > 1 µM
Second compound 0.316 µM
  IC50: > 1 µM
Second compound 1 µM
  IC50: > 1 µM
Second compound 3.16 µM
  IC50: 0.753 µM
Second compound 10 µM
  IC50: 0.322 µM
Second compound 0.0316 µM, first compound 0.00316 µM
  viability, T/C: 84.8%
Second compound 0.0316 µM, first compound 0.01 µM
  viability, T/C: 103%
[1]
  viability, T/C: 123%
[2]
  viability, T/C: 91.5%
[3]
  viability, T/C: 107%
[4]
  viability, T/C: 105%
Second compound 0.1 µM, first compound 0.00316 µM
  viability, T/C: 124%
Second compound 0.1 µM, first compound 0.01 µM
  viability, T/C: 104%
[5]
  viability, T/C: 131%
[6]
  viability, T/C: 88.9%
[7]
  viability, T/C: 103%
[8]
  viability, T/C: 76.2%
Second compound 0.316 µM, first compound 0.00316 µM
  viability, T/C: 103%
Second compound 0.316 µM, first compound 0.01 µM
  viability, T/C: 91.8%
[9]
  viability, T/C: 123%
[10]
  viability, T/C: 104%
[11]
  viability, T/C: 118%
[12]
  viability, T/C: 73.6%
Second compound 1 µM, first compound 0.00316 µM
  viability, T/C: 118%
Second compound 1 µM, first compound 0.01 µM
  viability, T/C: 108%
[13]
  viability, T/C: 115%
[14]
  viability, T/C: 108%
[15]
  viability, T/C: 96.8%
[16]
  viability, T/C: 58.9%
Second compound 3.16 µM, first compound 0.00316 µM
  viability, T/C: 119%
Second compound 3.16 µM, first compound 0.01 µM
  viability, T/C: 92.9%
[17]
  viability, T/C: 111%
[18]
  viability, T/C: 93.5%
[19]
  viability, T/C: 84.2%
[20]
  viability, T/C: 38.7%
Second compound 10 µM, first compound 0.00316 µM
  viability, T/C: 81.5%
Second compound 10 µM, first compound 0.01 µM
  viability, T/C: 84.4%
[21]
  viability, T/C: 94%
[22]
  viability, T/C: 66.7%
[23]
  viability, T/C: 52.8%
[24]
  viability, T/C: 28.1%

## Cn1ncc(Cl)c1-c1cc(C(=O)NC(CN)Cc2cccc(F)c2)sc1Cl (stereo unspecified) + Cc1nc(NC(=O)N2CCCC2C(N)=O)sc1-c1ccnc(C(C)(C)C(F)(F)F)c1
Second compound 0.0316 µM
  IC50: > 10 µM
Second compound 0.1 µM
  IC50: > 10 µM
Second compound 0.316 µM
  IC50: > 10 µM
Second compound 1 µM
  IC50: > 10 µM
Second compound 3.16 µM
  IC50: > 10 µM
Second compound 10 µM
  IC50: > 10 µM
[1]
  viability, T/C: 94%
[2]
  viability, T/C: 123%
[3]
  viability, T/C: 104%
[4]
  viability, T/C: 77.9%
[25]
  viability, T/C: 89.8%
[26]
  viability, T/C: 71.6%
[5]
  viability, T/C: 116%
[6]
  viability, T/C: 134%
[7]
  viability, T/C: 104%
[8]
  viability, T/C: 101%
[27]
  viability, T/C: 72.3%
[28]
  viability, T/C: 65.9%
[9]
  viability, T/C: 102%
[10]
  viability, T/C: 104%
[11]
  viability, T/C: 124%
[12]
  viability, T/C: 92.1%
[29]
  viability, T/C: 72.3%
[30]
  viability, T/C: 70.9%
[13]
  viability, T/C: 97.4%
[14]
  viability, T/C: 92.7%
[15]
  viability, T/C: 97.4%
[16]
  viability, T/C: 88.4%
[31]
  viability, T/C: 77.9%
[32]
  viability, T/C: 54.9%
[17]
  viability, T/C: 86.7%
[18]
  viability, T/C: 87.7%
[19]
  viability, T/C: 88%
[20]
  viability, T/C: 75.1%
[33]
  viability, T/C: 72.5%
[34]
  viability, T/C: 60%
[21]
  viability, T/C: 85.9%
[22]
  viability, T/C: 79.8%
[23]
  viability, T/C: 92.5%
[24]
  viability, T/C: 89%
[35]
  viability, T/C: 59.5%
[36]
  viability, T/C: 56.6%

## Cn1nccc1Nc1nccc(-c2ccn(C(CO)c3ccc(Cl)c(F)c3)c(=O)c2)n1 (stereo unspecified) + Cc1nc(NC(=O)N2CCCC2C(N)=O)sc1-c1ccnc(C(C)(C)C(F)(F)F)c1
Second compound 0.0316 µM
  IC50: > 10 µM
Second compound 0.1 µM
  IC50: > 10 µM
Second compound 0.316 µM
  IC50: > 10 µM
Second compound 1 µM
  IC50: > 10 µM
Second compound 3.16 µM
  IC50: > 10 µM
Second compound 10 µM
  IC50: > 10 µM
[1]
  viability, T/C: 107%
[2]
  viability, T/C: 116%
[3]
  viability, T/C: 88.5%
[4]
  viability, T/C: 79.3%
[25]
  viability, T/C: 103%
[26]
  viability, T/C: 72.8%
[5]
  viability, T/C: 112%
[6]
  viability, T/C: 110%
[7]
  viability, T/C: 108%
[8]
  viability, T/C: 105%
[27]
  viability, T/C: 87.4%
[28]
  viability, T/C: 82.1%
[9]
  viability, T/C: 129%
[10]
  viability, T/C: 107%
[11]
  viability, T/C: 98.1%
[12]
  viability, T/C: 89.2%
[29]
  viability, T/C: 105%
[30]
  viability, T/C: 80.7%
[13]
  viability, T/C: 118%
[14]
  viability, T/C: 108%
[15]
  viability, T/C: 104%
[16]
  viability, T/C: 119%
[31]
  viability, T/C: 85.2%
[32]
  viability, T/C: 74.8%
[17]
  viability, T/C: 85.9%
[18]
  viability, T/C: 119%
[19]
  viability, T/C: 85.6%
[20]
  viability, T/C: 82.8%
[33]
  viability, T/C: 79.7%
[34]
  viability, T/C: 88.5%
[21]
  viability, T/C: 76.8%
[22]
  viability, T/C: 98.3%
[23]
  viability, T/C: 71.1%
[24]
  viability, T/C: 86.9%
[35]
  viability, T/C: 88%
[36]
  viability, T/C: 72.4%
